In ChEMBL document CHEMBL1201862, “PubChem BioAssay data set” (2004):
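Cultured in 96-well plates, cells were exposed to test compound for 48 hours across five concentrations. GI50 is the concentration that inhibits growth by half.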 The source made the active and inactive calls. Cut-off read from the data, not from the text of the source: active = GI50 up to about 1.1 µM and inactive = higher.

Assays:
Assay in all cases: NCI anticancer screen, dose series, 48 h
KM-20L2 = system: KM-20L2
XF498 = system: XF498
HOP-18 = system: HOP-18
M19-MEL = system: M19-MEL
RXF 631 = system: RXF 631
DMS-273 = system: DMS-273
DLD-1 = system: DLD-1
SNB-78 = system: SNB-78
DMS-114 = system: DMS-114

Measured: GI50

COc1cc2c(OC)cc1CSCc1sc(C)c(c1Br)CSC2
inactive: KM-20L2 > 100 µM | XF498 > 100 µM | HOP-18 > 100 µM | M19-MEL > 100 µM | RXF 631 > 100 µM | DMS-273 > 100 µM | DLD-1 > 100 µM | SNB-78 > 100 µM | DMS-114 > 100 µM

Cc1ccc(C)c(NC(=O)C(=O)C2C(=O)N(c3ccccc3)N=C2N)c1 (stereo not drawn)
inactive: KM-20L2 > 100 µM | XF498 > 100 µM | HOP-18 > 100 µM | M19-MEL > 100 µM | RXF 631 > 100 µM | DMS-273 > 100 µM | DLD-1 > 100 µM | SNB-78 > 100 µM

NCCCNCCSSCCCCS(=O)O
inactive: KM-20L2 > 100 µM | XF498 18.2 µM | HOP-18 > 100 µM | M19-MEL 12.6 µM | RXF 631 > 100 µM | DMS-273 35.8 µM | DLD-1 45.8 µM | SNB-78 22.8 µM | DMS-114 > 100 µM

Nc1nc2c(ncn2C2OC(CO)C(O)C2N)c(=O)[nH]1 (stereo not drawn)
inactive: XF498 > 100 µM | M19-MEL > 100 µM | RXF 631 79.6 µM | DMS-273 > 100 µM | DLD-1 > 100 µM | SNB-78 > 100 µM | DMS-114 > 100 µM

N#CC(C(=O)CCC(=O)Nc1cccc(Cl)c1)c1ccccc1 (stereo not drawn)
inactive: KM-20L2 > 100 µM | HOP-18 > 100 µM | M19-MEL > 100 µM | RXF 631 > 100 µM | DMS-273 > 100 µM | DLD-1 > 100 µM | SNB-78 > 100 µM | DMS-114 > 100 µM

C=CCN(N=O)C(=O)NCCCCC(NC(C)=O)C(=O)NCc1ccccc1 (stereo not drawn)
inactive: KM-20L2 > 100 µM | XF498 > 100 µM | HOP-18 80.7 µM | M19-MEL > 100 µM | RXF 631 > 100 µM | DMS-273 > 100 µM | DMS-114 > 100 µM

c1ccc2c(c1)n1nnnc1c1nnnn21
inactive: KM-20L2 93.8 µM | XF498 > 100 µM | M19-MEL > 100 µM | RXF 631 > 100 µM | DMS-273 > 100 µM | DLD-1 > 100 µM | SNB-78 53.6 µM | DMS-114 83.4 µM

O=C1NC(=S)NC(=O)C1=Cc1cc2c(cc1[N+](=O)[O-])OCO2
inactive: KM-20L2 > 100 µM | HOP-18 > 100 µM | M19-MEL > 100 µM | RXF 631 97.3 µM | DMS-273 63.1 µM | DLD-1 67.3 µM | SNB-78 > 100 µM | DMS-114 36.8 µM

O=c1nc2occc2cn1C1CC(O)C(CO)O1 (stereo not drawn)
inactive: KM-20L2 > 100 µM | XF498 > 100 µM | HOP-18 > 100 µM | M19-MEL > 100 µM | RXF 631 > 100 µM | DMS-273 > 100 µM | DLD-1 > 100 µM | SNB-78 > 100 µM | DMS-114 > 100 µM
